Test [1] concerns Porcine Ovarian Granulosa Cells. The test can be described thus: Test Example 7: inhibition of SNP-induced apoptosis of undifferentiated POGC. Particulars: Sus scrofa; for complete inhibition of apoptosis; SNP 0.5 mM; cells observed after 48 hours; read-out: Minimum effective concentration. In kind it is cell-based.
Test [2] deals with cerebellar granule cells. Nature of the test: Test Example 10: hydrogen peroxide-induced death of cerebellar granule cells. The format is cell-based, rats. Particulars: Rattus norvegicus, read-out: cells alive. On the procedure:
(§1) According to a known method (A Dissection and Tissue Culture Manual of the Nervous System, p. 211, 1989, Alan R, Liss, Inc.), cerebellar granule cells were isolated from the cerebellum of 7 days old rats and cultured. Namely, after conducting isolation procedures described in the above literature, the resulting cells were resuspended in DMEM containing 10% fetal bovine serum, 25 mM KCl and 2 mM glutamine, and seeded in poly-lysine coated plates. After the cells were cultured in a CO2 incubator for 48 hours according to a conventional method, cytosine-1-β-D(+)-arabinofuranoside (Ara-C) (10 µM) was added thereto, and the cell was continued to culture. The following experiments were conducted with the cells of 7 to 14 days old from the start day of the culture, the cells having completed neurite extension sufficiently. […] Furthermore, experiments were conducted by increasing a concentration of hydrogen peroxide to 300 µM. In the cases that Test Compound 18 (10 µM), Test Compound 19 (10 µM), or Test Compound 20 (10 µM) were added, about 90%, 90%, and 70% of the cells were alive, respectively, on observations after 16 hours.

Test [3] deals with cerebellar granule cells. Nature of the test: Test Example 11: SNP-induced death of cerebellar granule cells. In kind it is cell-based, rats. Particulars: Rattus norvegicus; 10 µM added prior to SNP (1.5 µM); observation after 12 hours; read-out: cells alive.
Test [4] deals with erythrocytes. The test can be described thus: Test Example 13: hydrogen peroxide-induced death of erythrocytes. The note with it: Homo sapiens, Erythrocyte, read-out: ratios of dead erythrocytes (dark ghost cells); for cytotoxicity at 20 µM: 20 µM added prior to hydrogen peroxide (300 µM). The format is cell-based. As to the method:
After human blood (2 mL) was centrifuged at 1000 rpm for 5 min, the resulting cell pellets containing erythrocytes were washed three times with a DMEM medium and the cells were resuspended in the same medium (15 mL) (about 5 × 10^8 cells/mL). Ten µL of this suspension was added with 10% FCS/DMEM (10 mL), and the cells were plated in 48 well plates (500 µL/well). When hydrogen peroxide (300 µM) was added to the erythrocyte culture solution and the cells were cultured for 24 hours, all erythrocytes were dead on observations under a light microscopy (all erythrocytes were subjected to shape changes from a bright, round and concave shape into a dark hemolytic ghost through multiple shape changes). On the other hand, Test Compound 14 (30 µM), Test Compound 18 (10 µM), Test Compound 19 (20 µM) or Test Compound 20 (20 µM) was added prior to the hydrogen peroxide addition.

Test [5] deals with undifferentiated POGC. Nature of the test: Test Example 8: bilirubin-induced cell death of undifferentiated POGC. The format is cell-based, porcine. Particulars: Sus scrofa, 96 h; 10 µM added prior to bilirubin (30 µg/mL); observation after 4 days; read-out: survival of the cells.
Test [6] relates to 4B2 cells. The test can be described thus: Test Example 9: SNP-induced apoptosis of 4B2 granulosa cell line. Particulars: Mus musculus; 10 µM added prior to SNP (0.5 mM); observation after 24 hours; read-out: cells alive. In kind it is cell-based. As to the method:
Mouse granulosa cells were transfected with SV40 T antigen and cDNA of steroidogenic factor-1 (SF-1/Ad4BP) to establish a cell line, named 4B2. The cell secretes progesterone in response to protein kinase-A. The 4B2 cells were cultured in 48-well culture plates until subconfluency in DMEM containing 10% fetal bovine serum in a CO2 incubator according to a conventional manner. After the medium was switched to DMEM containing 2% fetal bovine serum, SNP (0.5 mM) was added thereto. […] Then, prior to the addition of SNP, Test Compound 13, 14, 17, 20, 24 or 25 (10 µM each) was added to the present medium and observations on cells were made after 24 hours.

Test [7] relates to undifferentiated POGC. Nature of the test: Test Example 6: hydrogen peroxide-induced cell death of undifferentiated POGC. The format is cell-based, porcine. Particulars: Sus scrofa; 3 µM added prior to hydrogen peroxide (100 µm); observation after 24 hours; read-out: cells alive.
The subject of test [8] is Porcine ovarian granulosa cells (POGC). Nature of the test: Test Example 2: cell death of terminally differentiated (FSH/LH) POGC on continued culture. In kind it is cell-based. Particulars: Sus scrofa, 168 h; 3 µM added 4 days after final medium refreshment; observation 7 days after addition; read-out: cells alive. From the text:
(§2) The ovarian granulosa cells are cells surrounding an ovum, and proliferate and differentiate by the action of follicle stimulating hormone (FSH) and luteinizing hormone (LH) in response to sexual cycles, during which they acquire a progesterone-producing ability. Unovulatory follicles finally undergo apoptosis and disappear. The differentiation process can be mimicked following to a known method (Endocrinology, Vol. 136, p. 3470, 1995) as shown in the following in vitro experiment. Furthermore, when they are continuously cultured with maintaining final differentiation ability, they are observed to undergo apoptosis as described below. Namely, porcine ovaries were rinsed with PBS buffer, and porcine ovarian granulosa cells (POGC) were collected by aspiration from antral follicles with a syringe. Cell fraction was recovered as a precipitate by centrifugation of the suspension. The operation of suspending the cell fraction into PBS buffer and subjecting the resulting suspension to centrifugation was repeated three times to wash the cells. […] Upon continued culture, these completely differentiated cells undergo cell death synchronously after about 5 days, the cell death being monitored by a trypan blue exclusion test and a MTT (3-(4,5-dimethylthiazol-2-yl)-2,5-diphenyltetrazolium bromide) test.

Test [9] relates to Primary cultured fibroblasts. Nature of the test: Test Example 14: SNP-induced apoptosis of primary cultured fibroblasts. In kind it is cell-based, mice. Particulars: Mus musculus, Fibroblast, observation after 48 hours, read-out: cells alive. As to the method: Primary cultured fibroblasts were prepared from mice according to a known method (Kinou Saibou no Bunri to Baiyou (Isolation and Culture of Functional Cells), Maruzen, 1987, p. 59). Namely, after removing skin hairs from mice with shaving foam followed by disinfection with a chlorhexidine gluconate solution, tiny skin fragments were isolated. […] After migration of fibroblasts became obvious, the slide glasses and the residual skin fragments were removed, and the culture was continued. […] In the cases that Test Compound 14 (5 µM) or Test Compound 18 (2.5 µM) was added to the present culture system prior to the SNP addition, apoptosis in both cultures was inhibited and more than 95% of cells were alive on an observation after 48 hours.

The test system of test [10] is POGC. The test can be described thus: Test Example 5: staurosporine-induced cell death of completely differentiated POGC. The format is cell-based, porcine. The note with it: Sus scrofa; 3 µM added prior to staurosporine (3 nM); observation after 68 hours; read-out: cells alive.
Text: as §2, with “test. […]” for “test.”

Test [11] has as its system monolayer cells derived from the mouse kidneys. The test can be described thus: Test Example 15: SNP-induced apoptosis of monolayer cells derived from kidneys. In kind it is cell-based, mice. The note with it: observation after 48 hours, read-out: cells alive. As to the method:
Kidneys isolated from mice were dissected into minute pieces in a serum-free DMEM, which were dispersed with trypsin/EDTA treatment. After leaving it for a while, the supernatant was discarded, and the pellet was transferred to a culture plate and cultured in DMEM containing 10% fetal bovine serum in a CO2 incubator according to a conventional manner. After tissues were adhered onto a culture plate and subsequently cell colonies got formed, the tissues were removed and the colonies were subcultured in the same medium. The resulting monolayer cells derived from the mouse kidneys were morphologically different from fibroblasts. […] Then, Test Compound 14 (5 µM) or Test Compound 18 (2.5 µM) was added prior to the SNP addition and the cells were observed.

The subject of test [12] is Porcine ovarian granulosa cells (POGC). The test can be described thus: Test Example 3: PGF2α-induced cell death of terminally differentiated POGC. The format is cell-based. Particulars: Sus scrofa; 3 µM added prior to PGF2α (50 µg/mL); observation after 16 hour; read-out: survival of the cells.
Text: as §2, with “test. […]” for “test.”

The subject of test [13] is POGC. The test can be described thus: Test Example 4: cell death of POGC in long term serum-free, hormone-free culture. In kind it is cell-based, porcine. The note with it: Sus scrofa, 168 h, observation at 7 days after the death of cells treated with no test compound, read-out: survival of the cells.
Text: as §2, with “test. […]” for “test.”

Test [14] has as its system cerebellar granule cells. The test can be described thus: Test Example 12: bilirubin-induced death of cerebellar granule cells. In kind it is cell-based, rats. The note with it: Rattus norvegicus; 10 µM added prior to bilirubin (100 µg/ml); observation after 18 hours; read-out: cells alive. As to the method:
as §1
Neonatal jaundice is known to induce severe brain damages by way of abnormally high concentration of bilirubin in the body. […]

The mark [15] stands for this setting: 10 µM added prior to hydrogen peroxide (10 µM), observation after 12 hours.
The mark [16] stands for this setting: 10 µM, hydrogen peroxide 300 µM, observation after 16 hours.
Setting [17] is: 2.5 µM added prior to SNP (0.5 mM).
The mark [18] stands for this setting: 5 µM added prior to SNP (0.5 mM).

Where only a bound is given, the exact number is not on record here.

On to `CN1C(=O)C(c2c[nH]c3ccccc23)=C(c2cn(CCCN)c3ccccc23)C1=O` [Compound 19], for which the minimal effective concentration in test [1] turned out to be 0.7 µM. For the same molecule, the values for the viability at 10 µM in test [2] (setting [15]), in test [2] (setting [16]) and in [3] were more than 95%, approximately 90% and more than 95%, respectively. For the same molecule, the cytotoxicity at 20 µM in test [4] (observation after 24 hours) is 10%.
For the molecule `Cc1cccc2c(C3=C(c4c[nH]c5c(C)cccc45)C(=O)N(C)C3=O)c[nH]c12` [Compound 25], the minimal effective concentration in test [1] came to 0.3 µM. Also, the viability at 10 µM in test [2] (setting [15]) was more than 95%; in test [3] it was more than 95%; in test [5], 95%; in test [6], more than 95%.
Consider `CN(C)CCCn1cc(C2=C(c3c[nH]c4ccccc34)C(=O)NC2=O)c2ccccc21` [Compound 18], for which the viability at 3 µM in test [7], in test [8], in test [10], in test [12] and in test [13] was more than 95% in each case. Also, the viability at 10 µM in [2] (setting [16]) was approximately 90%. The viability at 2.5 µM in test [9] (setting [17]) and in test [11] (setting [17]) was more than 95% each time. In addition, the cytotoxicity at 10 µM in test [4] (24 h) is 20%.
Consider `CN1C(=O)C(c2c[nH]c3ccccc23)=C(c2c[nH]c3ccccc23)C1=O`, for which the viability at 5 µM in [9] (setting [18]) and in test [11] (setting [18]) was more than 95% throughout. In addition, the figures for the viability at 10 µM in test [3], in test [5] and in [6] were more than 95%, 50% and more than 95%, respectively. Also, the cytotoxicity at 30 µM in test [4] (30 µM added prior to hydrogen peroxide (300 µM), observation after 24 hours) amounted to 20%.
As for `CC(=O)NCCCn1cc(C2=C(c3c[nH]c4ccccc34)C(=O)N(C)C2=O)c2ccccc21` [Compound 20], the minimal effective concentration in test [1] was found to be 7 µM. In addition, the viability at 10 µM in test [2] (setting [16]) was approximately 70%; in test [3], more than 95%; in test [6] it was more than 95%; in test [14], approximately 80%. Further, the cytotoxicity at 20 µM in test [4] (observation after 24 hours) was determined as 10%.

The values are drawn from EP1057484A1, “CELL DEATH INHIBITORS” (priority 1998, dated 1999).
